Experimental data published in publication PMC6409085, “Three odorant-binding proteins are involved in the behavioral response of Sogatella furcifera to rice plant volatiles” (PeerJ, 2019).
Several values for one entry are separate records, joined by “and”; a condition that tells them apart may be missing. Identical values can stand only once.

What was measured:
SfurOBP1 = SfurOBP1 (Sogatella furcifera, UniProt V5T8N5); experiment: biochemical; type: binding; conditions: for Fluorescence competitive binding assay, fluorescence intensity: OBP1, three replicate columns
Chain of SfurOBP1 (V5T8N5 entry or part of it): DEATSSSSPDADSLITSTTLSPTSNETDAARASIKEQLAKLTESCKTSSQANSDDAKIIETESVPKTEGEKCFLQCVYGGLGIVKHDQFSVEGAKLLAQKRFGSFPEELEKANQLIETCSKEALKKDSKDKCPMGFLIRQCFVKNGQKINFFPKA
In short: (§1)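 Fluorescence competitive binding used 2.0 µM SfurOBP and 2.0 µM 1-NPN reporter in 50 mM Tris-HCl, pH 7.4, with odorants at 2-20 µM. Fluorescence was read 2 min after adding the odorant (excitation 337 nm, emission 390-490 nm), in triplicate. Ki was calculated from IC50 as IC50/(1 + [1-NPN]/K1-NPN).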

SfurOBP11 = SfurOBP11 (Sogatella furcifera, UniProt V5T6E3); experiment: biochemical; type: binding
Chain of SfurOBP11 (V5T6E3 entry or part of it): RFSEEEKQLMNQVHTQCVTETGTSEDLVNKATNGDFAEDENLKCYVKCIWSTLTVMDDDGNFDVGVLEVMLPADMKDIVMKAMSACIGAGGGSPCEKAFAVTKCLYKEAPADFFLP
In short: as §1

SfurOBP2 = SfurOBP2 (Sogatella furcifera, UniProt V5T759); experiment: biochemical; type: binding
Chain of SfurOBP2 (V5T759 entry or part of it): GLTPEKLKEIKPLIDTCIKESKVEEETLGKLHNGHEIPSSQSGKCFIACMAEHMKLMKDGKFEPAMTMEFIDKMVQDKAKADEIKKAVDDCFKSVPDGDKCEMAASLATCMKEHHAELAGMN
In short: as §1

SfurOBP3 = SfurOBP3 (Sogatella furcifera, UniProt V5T818); experiment: biochemical; type: binding; conditions: for Fluorescence competitive binding assay, fluorescence intensity: OBP3, three replicate columns
Chain of SfurOBP3 (V5T818 entry or part of it): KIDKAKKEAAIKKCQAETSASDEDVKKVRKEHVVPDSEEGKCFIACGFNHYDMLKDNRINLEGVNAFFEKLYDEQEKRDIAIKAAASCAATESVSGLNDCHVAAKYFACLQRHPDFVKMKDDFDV
In short: as §1

S. furcifera adults = experiment: Y-tube olfactometer behavioral trials; type: in vivo, Sogatella furcifera; conditions: odorant 50 µL/L vs hexane; adults
In short: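 Single S. furcifera adults (2 days post-emergence, starved 0.5 h) chose between odorant (100 µL of 50 µL/L on filter paper) and hexane control in a glass Y-tube, charcoal-filtered humidified air 300 mL/min per arm, 25 ± 1 °C, 50% RH. Choice scored if insect passed half an arm and stayed >1 min within 10 min; 45 insects per compound, chi-squared test.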

SMILES: CCCCCC=O [caproaldehyde]
- Fluorescence competitive binding assay, fluorescence intensity (SfurOBP1; ligand concentration 2 (μM)): 7058 and 6495 and 6761
- Fluorescence competitive binding assay, fluorescence intensity (SfurOBP1; ligand concentration 4 (μM)): 6839 and 6210 and 6737
- Fluorescence competitive binding assay, fluorescence intensity (SfurOBP1; ligand concentration 6 (μM)): 6250 and 6285 and 6245
- Fluorescence competitive binding assay, fluorescence intensity (SfurOBP1; ligand concentration 8 (μM)): 7860 and 6318 and 6460
- Fluorescence competitive binding assay, fluorescence intensity (SfurOBP1; ligand concentration 10 (μM)): 7929 and 6952 and 5745
- Fluorescence competitive binding assay, fluorescence intensity (SfurOBP1; ligand concentration 12 (μM)): 6197 and 6258 and 6135
- Fluorescence competitive binding assay, fluorescence intensity (SfurOBP1; ligand concentration 14 (μM)): 6889 and 6127 and 7279
- Fluorescence competitive binding assay, fluorescence intensity (SfurOBP1; ligand concentration 16 (μM)): 6363 and 6530 and 5971
- Fluorescence competitive binding assay, fluorescence intensity (SfurOBP1; ligand concentration 18 (μM)): 6197 and 6677 and 5953
- Fluorescence competitive binding assay, fluorescence intensity (SfurOBP1; ligand concentration 20 (μM)): 6241 and 6216 and 6243
- IC50 (SfurOBP1; SfurOBP1, protein and 1-NPN both 2.0 µM, competitor 2-20 µM, read-out: IC50): > 20 µM
- IC50 (SfurOBP11; SfurOBP11, protein and 1-NPN both 2.0 µM, competitor 2-20 µM, read-out: IC50): > 20 µM
- Fluorescence intensity, fluorescence competitive binding assay, OBP11 (SfurOBP11; ligand concentration 2, replicate 1): 29622
- Fluorescence intensity, fluorescence competitive binding assay, OBP11 (SfurOBP11; ligand concentration 2, replicate 2): 27160
- Fluorescence intensity, fluorescence competitive binding assay, OBP11 (SfurOBP11; ligand concentration 2, replicate 3): 24651
- Fluorescence intensity, fluorescence competitive binding assay, OBP11 (SfurOBP11; ligand concentration 4, replicate 1): 27823
- Fluorescence intensity, fluorescence competitive binding assay, OBP11 (SfurOBP11; ligand concentration 4, replicate 2): 29657
- Fluorescence intensity, fluorescence competitive binding assay, OBP11 (SfurOBP11; ligand concentration 4, replicate 3): 29706
- Fluorescence intensity, fluorescence competitive binding assay, OBP11 (SfurOBP11; ligand concentration 6, replicate 1): 29000
- Fluorescence intensity, fluorescence competitive binding assay, OBP11 (SfurOBP11; ligand concentration 6, replicate 2): 25791
- Fluorescence intensity, fluorescence competitive binding assay, OBP11 (SfurOBP11; ligand concentration 6, replicate 3): 27264
- Fluorescence intensity, fluorescence competitive binding assay, OBP11 (SfurOBP11; ligand concentration 8, replicate 1): 26196
- Fluorescence intensity, fluorescence competitive binding assay, OBP11 (SfurOBP11; ligand concentration 8, replicate 2): 25787
- Fluorescence intensity, fluorescence competitive binding assay, OBP11 (SfurOBP11; ligand concentration 8, replicate 3): 26691
- Fluorescence intensity, fluorescence competitive binding assay, OBP11 (SfurOBP11; ligand concentration 10, replicate 1): 22993
- Fluorescence intensity, fluorescence competitive binding assay, OBP11 (SfurOBP11; ligand concentration 10, replicate 2): 24045
- Fluorescence intensity, fluorescence competitive binding assay, OBP11 (SfurOBP11; ligand concentration 10, replicate 3): 23459
- Fluorescence intensity, fluorescence competitive binding assay, OBP11 (SfurOBP11; ligand concentration 12, replicate 1): 23301
- Fluorescence intensity, fluorescence competitive binding assay, OBP11 (SfurOBP11; ligand concentration 12, replicate 2): 22698
- Fluorescence intensity, fluorescence competitive binding assay, OBP11 (SfurOBP11; ligand concentration 12, replicate 3): 22770
- Fluorescence intensity, fluorescence competitive binding assay, OBP11 (SfurOBP11; ligand concentration 14, replicate 1): 21327
- Fluorescence intensity, fluorescence competitive binding assay, OBP11 (SfurOBP11; ligand concentration 14, replicate 2): 20283
- Fluorescence intensity, fluorescence competitive binding assay, OBP11 (SfurOBP11; ligand concentration 14, replicate 3): 20685
- Fluorescence intensity, fluorescence competitive binding assay, OBP11 (SfurOBP11; ligand concentration 16, replicate 1): 18242
- Fluorescence intensity, fluorescence competitive binding assay, OBP11 (SfurOBP11; ligand concentration 16, replicate 2): 16904
- Fluorescence intensity, fluorescence competitive binding assay, OBP11 (SfurOBP11; ligand concentration 16, replicate 3): 18315
- Fluorescence intensity, fluorescence competitive binding assay, OBP11 (SfurOBP11; ligand concentration 18, replicate 1): 21574
- Fluorescence intensity, fluorescence competitive binding assay, OBP11 (SfurOBP11; ligand concentration 18, replicate 2): 21057
- Fluorescence intensity, fluorescence competitive binding assay, OBP11 (SfurOBP11; ligand concentration 18, replicate 3): 21178
- Fluorescence intensity, fluorescence competitive binding assay, OBP11 (SfurOBP11; ligand concentration 20, replicate 1): 19958
- Fluorescence intensity, fluorescence competitive binding assay, OBP11 (SfurOBP11; ligand concentration 20, replicate 2): 19749
- Fluorescence intensity, fluorescence competitive binding assay, OBP11 (SfurOBP11; ligand concentration 20, replicate 3): 19854
- IC50 (SfurOBP2; SfurOBP2, protein and 1-NPN both 2.0 µM, competitor 2-20 µM, read-out: IC50): > 20 µM
- Fluorescence competitive binding assay, OBP2 (raw fluorescence reading) (SfurOBP2; ligand concentration 2 (unit not given), replicate column 1 of 3): 19948
- Fluorescence competitive binding assay, OBP2 (raw fluorescence reading) (SfurOBP2; ligand concentration 2 (unit not given), replicate column 2 of 3): 17721
- Fluorescence competitive binding assay, OBP2 (raw fluorescence reading) (SfurOBP2; ligand concentration 2 (unit not given), replicate column 3 of 3): 20397
- Fluorescence competitive binding assay, OBP2 (raw fluorescence reading) (SfurOBP2; ligand concentration 4 (unit not given), replicate column 1 of 3): 18968
- Fluorescence competitive binding assay, OBP2 (raw fluorescence reading) (SfurOBP2; ligand concentration 4 (unit not given), replicate column 2 of 3): 18911
- Fluorescence competitive binding assay, OBP2 (raw fluorescence reading) (SfurOBP2; ligand concentration 4 (unit not given), replicate column 3 of 3): 20133
- Fluorescence competitive binding assay, OBP2 (raw fluorescence reading) (SfurOBP2; ligand concentration 6 (unit not given), replicate column 1 of 3): 20477
- Fluorescence competitive binding assay, OBP2 (raw fluorescence reading) (SfurOBP2; ligand concentration 6 (unit not given), replicate column 2 of 3): 18306
- Fluorescence competitive binding assay, OBP2 (raw fluorescence reading) (SfurOBP2; ligand concentration 6 (unit not given), replicate column 3 of 3): 21619
- Fluorescence competitive binding assay, OBP2 (raw fluorescence reading) (SfurOBP2; ligand concentration 8 (unit not given), replicate column 1 of 3): 17546
- Fluorescence competitive binding assay, OBP2 (raw fluorescence reading) (SfurOBP2; ligand concentration 8 (unit not given), replicate column 2 of 3): 19283
- Fluorescence competitive binding assay, OBP2 (raw fluorescence reading) (SfurOBP2; ligand concentration 8 (unit not given), replicate column 3 of 3): 19094
- Fluorescence competitive binding assay, OBP2 (raw fluorescence reading) (SfurOBP2; ligand concentration 10 (unit not given), replicate column 1 of 3): 16315
- Fluorescence competitive binding assay, OBP2 (raw fluorescence reading) (SfurOBP2; ligand concentration 10 (unit not given), replicate column 2 of 3): 17446
- Fluorescence competitive binding assay, OBP2 (raw fluorescence reading) (SfurOBP2; ligand concentration 10 (unit not given), replicate column 3 of 3): 18120
- Fluorescence competitive binding assay, OBP2 (raw fluorescence reading) (SfurOBP2; ligand concentration 12 (unit not given), replicate column 1 of 3): 15600
- Fluorescence competitive binding assay, OBP2 (raw fluorescence reading) (SfurOBP2; ligand concentration 12 (unit not given), replicate column 2 of 3): 16015
- Fluorescence competitive binding assay, OBP2 (raw fluorescence reading) (SfurOBP2; ligand concentration 12 (unit not given), replicate column 3 of 3): 15598
- Fluorescence competitive binding assay, OBP2 (raw fluorescence reading) (SfurOBP2; ligand concentration 14 (unit not given), replicate column 1 of 3): 15415
- Fluorescence competitive binding assay, OBP2 (raw fluorescence reading) (SfurOBP2; ligand concentration 14 (unit not given), replicate column 2 of 3): 15014
- Fluorescence competitive binding assay, OBP2 (raw fluorescence reading) (SfurOBP2; ligand concentration 14 (unit not given), replicate column 3 of 3): 15552
- Fluorescence competitive binding assay, OBP2 (raw fluorescence reading) (SfurOBP2; ligand concentration 16 (unit not given), replicate column 1 of 3): 16559
- Fluorescence competitive binding assay, OBP2 (raw fluorescence reading) (SfurOBP2; ligand concentration 16 (unit not given), replicate column 2 of 3): 13446
- Fluorescence competitive binding assay, OBP2 (raw fluorescence reading) (SfurOBP2; ligand concentration 16 (unit not given), replicate column 3 of 3): 13014
- Fluorescence competitive binding assay, OBP2 (raw fluorescence reading) (SfurOBP2; ligand concentration 18 (unit not given), replicate column 1 of 3): 16224
- Fluorescence competitive binding assay, OBP2 (raw fluorescence reading) (SfurOBP2; ligand concentration 18 (unit not given), replicate column 2 of 3): 16658
- Fluorescence competitive binding assay, OBP2 (raw fluorescence reading) (SfurOBP2; ligand concentration 18 (unit not given), replicate column 3 of 3): 15875
- Fluorescence competitive binding assay, OBP2 (raw fluorescence reading) (SfurOBP2; ligand concentration 20 (unit not given), replicate column 1 of 3): 15466
- Fluorescence competitive binding assay, OBP2 (raw fluorescence reading) (SfurOBP2; ligand concentration 20 (unit not given), replicate column 2 of 3): 14819
- Fluorescence competitive binding assay, OBP2 (raw fluorescence reading) (SfurOBP2; ligand concentration 20 (unit not given), replicate column 3 of 3): 14364
- Fluorescence competitive binding assay, fluorescence intensity (SfurOBP3; ligand concentration 2): 54416 and 49651 and 50603
- Fluorescence competitive binding assay, fluorescence intensity (SfurOBP3; ligand concentration 4): 47681 and 49063 and 52745
- Fluorescence competitive binding assay, fluorescence intensity (SfurOBP3; ligand concentration 6): 47400 and 49699 and 51997
- Fluorescence competitive binding assay, fluorescence intensity (SfurOBP3; ligand concentration 8): 47134 and 47465 and 47300
- Fluorescence competitive binding assay, fluorescence intensity (SfurOBP3; ligand concentration 10): 47300 and 47488 and 47127
- Fluorescence competitive binding assay, fluorescence intensity (SfurOBP3; ligand concentration 12): 41818 and 40552 and 41184
- Fluorescence competitive binding assay, fluorescence intensity (SfurOBP3; ligand concentration 14): 39535 and 41064 and 41296
- Fluorescence competitive binding assay, fluorescence intensity (SfurOBP3; ligand concentration 16): 37737 and 36118 and 39070
- Fluorescence competitive binding assay, fluorescence intensity (SfurOBP3; ligand concentration 18): 41678 and 41915 and 41872
- Fluorescence competitive binding assay, fluorescence intensity (SfurOBP3; ligand concentration 20): 43199 and 40517 and 41843
- IC50 (SfurOBP3; SfurOBP3, protein and 1-NPN both 2.0 µM, competitor 2-20 µM, read-out: IC50): > 20 µM
- number of insects choosing hexane arm (S. furcifera adults): 9
- number of insects choosing volatilies arm (S. furcifera adults): 12
- number of insects failed (no choice) (S. furcifera adults): 19
